Reference: paper PMC12040169 (PLOS Biology, 2025)

Assay: in vitro
Conditions: human, hela cells, % viability

Structure (SMILES)	viability at 28.5 h, 10 µM
COc1ccc([N+](=O)[O-])cc1-c1ccc(/C=N/NC(=O)Cn2nnnc2N)o1 [CBK262505]	92.2%
O=C(c1cnc(-c2ccncc2)s1)N(CC(F)(F)F)C1CCC1 [CBK304119]	84.1%
Cc1nc(CNC(=O)NC2CCCN(c3ccn(C)n3)C2=O)c(C)s1 (stereo not shown) [CBK305926]	95%
O=C(Cc1n[nH]c(=O)[nH]c1=O)N/N=C/c1ccc(C(=O)O)cc1 [CBK263525]	99.5%
Cn1c(=O)n(C)c2cc(S(=O)(=O)NCC3(O)CCCNCC3)ccc21 (stereo not shown) [CBK306777]	84.9%
O=C(Cn1ncn2c(cc3ccsc32)c1=O)N1CCCCC1 [CBK284195]	85.2%
CCc1nn(CC(=O)N2CCC(C)CC2)c(=O)c2cc3occc3n12 [CBK283675]	76.4%
Cc1cc(C(C)(C)C)oc1C(=O)N1CCn2c(nnc2C2CC2)C1 [CBK283771]	93.9%
COc1ccc(Nc2ncnc3c2oc2ccccc23)cc1 [CBK291236]	86.5%
NS(=O)(=O)c1ccc(NC(=O)CCCN2C(=O)/C(=C/c3ccc(Cl)cc3)SC2=S)cc1 [CBK261302]	87.9%
O=C(c1ccccc1)c1ccc(S(=O)(=O)N2CCCN(Cc3c[nH]nc3-c3ccccc3)CC2)cc1 [CBK062773]	85.1%
CC1CCCCC1NC(=O)CSc1nnc(CN2CCOCC2)n1C (stereo not shown) [CBK266662]	102%
Cc1ccc(-c2nc(Nc3ccc(F)cc3)sc2CC(=O)O)cc1 [CBK264286]	89.4%
CC1(Cc2ccn[nH]2)SCCCS1 [CBK019308C]	109%
CC(=O)c1ccc(NC(=O)CSc2nnc(-c3ccc4ccccc4n3)s2)cc1 [CBK269205]	97.6%
CC[C@H](Cn1nc(-c2cccs2)ccc1=O)NC(=O)C(C)C [CBK284296]	93.7%
CCC1CCCCN1C(=O)c1ccccc1OC (stereo not shown) [CBK083205]	99.4%
Cc1nc(C2CCN(C(=O)c3ccn(C)n3)CC2)c2sccn12 [CBK285202]	93.4%
CC(=O)N1c2ccccc2C(C)=CC1C1CCCC(=O)C1 (stereo not shown) [CBK007219]	101%
Cn1ccnc1C1(O)CCN(C(=O)Nc2ccccc2F)CC1 [CBK282280]	112%
NS(=O)(=O)c1ccc(CNC(=O)c2cc(-c3ccncc3)nc3ccc(Cl)cc23)cc1 [CBK267770]	101%
Cc1ccc(S(N)(=O)=O)cc1N [CBK024851]	109%

Structure (SMILES)	viability at 28.5 h, 10 µM
Brc1cn2c(-c3ccccc3)cnc2c(N2CCCC2)n1 [CBK091488]	106%
CC(=O)Nc1ccc(S(=O)(=O)NC2(C(F)(F)F)NC(=O)N(c3ccc(Cl)cc3)C2=O)cc1 (stereo not shown) [CBK267689]	95.7%
CN(C)CC(=O)N1c2ccccc2CCc2ccc(NC(=O)c3ccc([N+](=O)[O-])cc3)cc21 [CBK278207C]	87.4%
N#Cc1ccc(-n2cc(-c3ccc(F)cc3F)nn2)cc1 [CBK112990]	98.3%
CCOC(=O)C(NC(=O)CCn1ccc2ccncc21)C(C)C (stereo not shown) [CBK284719]	91.6%
NCC1CCN(c2nc(-c3cc(C(F)(F)F)cc(C(F)(F)F)c3)cnc2N)CC1 [CBK063960]	87.3%
CCc1cc(NCCc2ccc(=O)[nH]c2)nc(-c2ccc(Br)cc2)n1 [CBK144610C]	93.3%
O=C(O)CCCSCC(=O)Nc1ccccc1 [CBK276905]	88.4%
O=C1N[C@@H]2CCN(C(=O)COc3cccnc3)C[C@@H]2CCCCCOc2ccccc21 [CBK292037]	94.6%
CCOC(=O)c1c(NC(=O)CN2CCCCC2)sc2c1CCCC2O (stereo not shown) [CBK261644]	90.5%
CCCCC(=O)Nc1nc(-c2ccc(S(=O)(=O)N3CCOCC3)cc2)cs1 [CBK096107]	86%
CCc1cccc(CC)c1NC(=O)CN(c1cccc(Br)c1)S(C)(=O)=O [CBK265986]	84.9%
CCCn1ncc(C(=O)N2CCc3c([nH]c4ccccc34)C2C)c1C (stereo not shown) [CBK281546]	98.3%
CCCC/C=C/c1cncc(Nc2ccccc2)n1 [CBK037942]	103%
CC(C)(C)c1[nH]c2ncccc2c1CN1CCCC(CO)C1 (stereo not shown) [CBK285342]	99.1%
COc1ccc(-c2cc(C(=O)NC3CCCCC3C)c3ccccc3n2)cc1 (stereo not shown) [CBK294459]	107%
CC(C)[C@H]1CN(Cc2ccco2)CCN1C(=O)N1CCOCC1 [CBK284273]	82.2%
CC(=O)Nc1cccc(NC(=O)N2CCN(Cc3ccccc3)CC2)c1 [CBK155643]	98%
CSc1ncc(CNC(=O)CC2CCc3ccccc32)n1C (stereo not shown) [CBK307450]	85.9%
COc1ccccc1Cc1cccc(C2CCCN2C(=O)CCc2ccc(F)cc2)n1 (stereo not shown) [CBK286238]	101%
CSCCN(C)C(=O)c1nnn(Cc2ccc(F)cc2F)c1C [CBK306468]	93.2%
Nc1ncc(-c2cccc(O)c2)nc1-c1ccc(C(=O)NCCO)cc1 [CBK064143]	114%

Structure (SMILES)	viability at 28.5 h, 10 µM
CCCc1[nH]nc(O)c1Cc1ccc(C(F)(F)F)cc1 [CBK075014]	88.9%
c1ccc(-c2cnc(C3CCCCC3)o2)cc1 [CBK008192]	83.1%
Cc1ccc(S(=O)(=O)NCCSCc2ccc(Cl)c(Cl)c2)cc1[N+](=O)[O-] [CBK264675]	99.9%
COc1ccc(CC(=O)N2CCCCC2c2ccc(Cc3cccc(F)c3)nc2)cc1 (stereo not shown) [CBK286493]	90.3%
O=C(CNC(=O)c1ccccc1Cl)Nc1ccc(Br)cc1C(=O)c1ccccc1 [CBK087691]	101%
O=C(Cn1cnc2ccc(F)cc2c1=O)N1Cc2ccccc2C(c2ccccc2)C1 (stereo not shown) [CBK296767]	95.1%
Cc1oc(C(=O)N2CCc3sccc3C2c2ccccc2)cc1CN1CCOCC1 (stereo not shown) [CBK285566]	105%
Cc1csc(NC(=O)c2cccc(S(=O)(=O)NCC3CCCO3)c2)n1 (stereo not shown) [CBK305017]	96.7%
Cc1nn(C)cc1C(C)NC(=O)C1(c2ccccc2F)CCOCC1 (stereo not shown) [CBK281594]	80.8%
CC(C)Cn1c(=O)c2c(nc3n2CCS3)n(C)c1=O [CBK307109]	98.1%
CC(=O)c1c(C)[nH]c(C(=O)N2CCN(C3CCN(C)CC3)CC2)c1C [CBK149098]	104%
O=C(O)C1CSC(c2ccc(-c3cccc(Cl)c3)o2)N1 (stereo not shown) [CBK286997]	97.5%
COc1ccccc1-c1nccnc1NCc1cc(OC)c(OC)c(OC)c1 [CBK036642]	90.6%
COc1ccc(CC(=O)N2CCNC(=O)C2Cc2ccccc2-c2ccccc2)cc1OC (stereo not shown) [CBK285827]	102%
COc1cccc(CC(=O)N2CCC[C@@H](N)[C@@H]2c2ccccc2F)c1 [CBK283455]	84.5%
Cc1ccc(OCC(=O)N2CCN(S(=O)(=O)c3ccccc3[N+](=O)[O-])CC2)cc1 [CBK264260]	98.5%
Nc1ncnc(NCCC(c2ccccc2)c2ccccc2)c1[N+](=O)[O-] [CBK267294]	90.5%
C#CCNC(=O)C1CCCN(c2nc3ccccc3n2CC)C1 (stereo not shown) [CBK282433]	90.5%
CCCCOc1ccc(NC(=O)NC(=O)C2CCN(CCc3ccc(Br)cc3)CC2)cc1 [CBK035096]	91.5%
CCOC(=O)n1c(=O)n2n(c1=O)CC=CC2 [CBK023102]	93.9%
CCn1cc(C(=O)N2CCC(Oc3ccccc3C)(C(=O)O)CC2)cn1 [CBK306699]	118%
COc1cc2c(cc1OC)C(c1ccccc1)N(Cc1ccc(OCCO)cc1)CC2 (stereo not shown) [CBK286359]	80%

Structure (SMILES)	viability at 28.5 h, 10 µM
CC(=O)NC[C@H]1CN(c2ccc(C#N)c(C)c2)C(=O)O1 [CBK010393]	107%
C[C@H](NC(=O)N1CCN(C(=O)CCc2c[nH]c3ccccc23)CC1)C(=O)O [CBK286774]	97.7%
COc1ccc(/C=C(/C(=O)NCc2ccc(Cl)cc2Cl)c2ccccc2)cc1 [CBK265256]	89.9%
Cc1ccccc1-c1ccccc1CC1(C(=O)N(C)C)CCN(C(=O)C2CCCCC2)CC1 [CBK285718]	98.2%
COc1ccc(-c2n[nH]c(=S)n2CC(=O)N2CCN(c3cccc(C)c3)CC2)cc1 [CBK295352]	88.6%
CC(C)C(N)c1nnc(SCc2ccccc2Cl)o1 (stereo not shown) [CBK270121C]	92%
O=C(CN1CCSCC1)NNC(=S)Nc1ccccc1 [CBK262445]	102%
CCN1C(=O)C2(CC(=O)N(Cc3ccc(OC)c(OC)c3)C2=O)c2cc(C)ccc21 (stereo not shown) [CBK075172]	85.4%
NC(=O)c1ccc(-c2nccnc2NCc2ccc3c(c2)OCO3)cc1 [CBK036696]	91.3%
Cc1ccc(-c2csc3ncnc(SCc4nc5ccccc5[nH]4)c23)cc1 [CBK267590]	83.5%
Cc1nn(C)cc1CN1CCC(C(=O)NCCc2ccccc2)C1 (stereo not shown) [CBK281968]	111%
CC(C)CCn1c(=S)[nH]c2c(oc3ccccc32)c1=O [CBK288504]	100%
CC(C)(C)CC(NC(=O)C1CCCN(S(C)(=O)=O)C1)c1ccccc1 (stereo not shown) [CBK304563]	90.6%
Cn1c(SCC(=O)c2ccc([N+](=O)[O-])cc2)nnc1-c1ccc(N)cc1 [CBK264843]	97.9%
CCNC(=S)N[C@H]1CC[C@@]2(Cc3ccc(OC)cc3)CCN(C)[C@H]2C1 [CBK004257]	101%
O=[N+]([O-])c1ccc(CN2CCC(Oc3nccnc3OC3CCCCC3)CC2)cc1 [CBK082861T]	90.4%
COc1ccc(CCN2C(=O)CC(N3CCN(Cc4ccc5c(c4)OCO5)CC3)C2=O)cc1OC (stereo not shown) [CBK074555]	88%
COc1cc2[nH]c(=S)n(CCc3c[nH]cn3)c(=O)c2cc1OC [CBK268333]	102%
O=S(=O)(N1CCCCCC1)n1ccnc1 [CBK269241]	92.1%
CC(NC(=O)Cc1cccs1)c1nc2cccnc2n1C(C)C (stereo not shown) [CBK283828]	81%
CCN(CC(=O)NC(C)C)Cc1nc(-c2cccc(C(F)(F)F)c2)no1 [CBK306039]	88.6%
COc1ccc([C@@]23CC[C@@H](NC(=O)Nc4ccc(F)c(F)c4)C[C@@H]2N(C)CC3)c(F)c1OC [CBK067405]	102%
